# Measured values published in US20220378789A1, “METHODS OF ADMINISTERING ELAGOLIX IN ASSOCIATION WITH ARTIFICIAL REPRODUCTIVE TECHNOLOGIES” (priority 2021, published 2022).
# Non-standard residues stand in square brackets, D forms with d. Residues, ends and D or L forms follow the SMILES beside them. d(hArg(Et2)) = CCN=C(NCC)NCCCC[C@@H](N)C(=O)O; hArg(Et2) = CCN=C(NCC)NCCCC[C@H](N)C(=O)O; dPhe(4-Cl) = N[C@H](Cc1ccc(Cl)cc1)C(=O)O; d2Nal = N[C@H](Cc1ccc2ccccc2c1)C(=O)O; d3Pal = N[C@H](Cc1cccnc1)C(=O)O
# Key:
# [1] = target: T1, GnRH receptor (Homo sapiens, UniProt P30968); assay: Cohort study of oocyte donors in an assisted reproductive technology cycle: ovulation suppression during ovarian stimulation; format: in vivo; conditions: for premature ovulation: Elagolix 200 mg PO QHS vs Ganirelix 250 mcg SQ QHS, 75 donors per group; for Avg. Peak Estradiol / Avg. Peak LH / Avg. Peak Progesterone / Days of Stimulation / Avg. Matures Oocytes / Avg. Oocytes / Avg. Cum GN Dose: group mean; for Avg. Matures Oocytes: mature oocytes at retrieval; for Avg. Oocytes: oocytes retrieved; for Avg. Cum GN Dose: total gonadotropins consumed per cycle
# T1 construct: from tissue; host or cells: anterior pituitary gland of the oocyte donors (in vivo)
# T1 sequence (P30968 1-328): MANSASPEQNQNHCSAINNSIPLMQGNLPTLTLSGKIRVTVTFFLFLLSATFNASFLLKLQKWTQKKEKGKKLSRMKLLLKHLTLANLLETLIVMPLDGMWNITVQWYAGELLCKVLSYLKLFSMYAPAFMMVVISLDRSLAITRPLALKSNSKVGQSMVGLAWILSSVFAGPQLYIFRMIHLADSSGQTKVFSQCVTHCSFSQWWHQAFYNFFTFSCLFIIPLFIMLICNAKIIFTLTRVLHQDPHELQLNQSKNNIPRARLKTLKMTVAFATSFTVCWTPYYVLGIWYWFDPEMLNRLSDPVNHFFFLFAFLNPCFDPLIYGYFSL
# Description: An example of a method of the present disclosure includes a Western IRB approved (WIRB® Protocol #20191163) cohort study of 75 oocyte donors undergoing an assisted reproductive technology cycle receiving Elagolix 200 mg PO QHS for ovulation suppression compared to 75 historical donors given Ganirelix 250 mcg SQ QHS. Ovarian stimulation involved 10 days of oral contraceptive pretreatment. A recombinant FSH (Gonal F) starting dosage was based on donor age, AMH and BMI. 20 U HCG addback was given throughout the cycle with antagonists administered with a lead follicle of greater than 14 mm. […] Secondary outcomes are the number of mature oocytes at oocyte retrieval, the maximum estradiol level, the total amount of gonadotropins consumed, and the number of injections and patient cost.
# The study medication was an orally bioavailable GnRH antagonist marketed by ABBVIE under the brand name ORILISSA® (Elagolix). The 200 mg dose was administered orally with once daily dosing.
# A study comprised 75 oocyte donors from whom data for 75 assisted reproductive technology cycles over the course of a two-year period was collected. Upon completion of data collection, a treatment group and an age and weight-matched control group were compared and assessed on the basis of demographic data, health history, ovarian reserve, and information regarding their ovarian stimulation cycles using Pearson χ2 and Student's t-tests. The primary outcome—premature ovulation rate—was evaluated using Chi squared tests. The secondary outcomes—number of mature oocytes, the maximum estradiol level, and the total amount of gonadotropins consumed—were compared using Student's t-tests.
# Protocol for Oocyte Donation with Elagolix for Ovulation Suppression 1. Prospective donor accepted into FDA-accredited egg donation program after successful completion of screening and the signing of the medical consent forms. 2. Oocyte donor given opportunity to volunteer to participate in the study. Oocyte donor given an IRB approved informed consent document and HIPAA authorization for Oocyte Donation with Elagolix for Ovulation Suppression Protocol. 3. Oocyte donor begins oral contraceptives to lead into ovarian stimulation. 4. Oocyte donor discontinues oral contraceptives after 10 to 14 days of administration. 5. 3 days after discontinuing oral contraceptives, oocyte donor begins daily SQ injections of rFSH with the dose based upon age, follicle stimulating hormone (FSH), antimullerian hormone (AMH) and antral follicular count. 6. On day 4 of rFSH medications, the practitioner obtains an estradiol level from an oocyte donor. The rFSH dose will be adjusted as necessary. 7. At 2 to 3 days intervals of medications, the practitioner obtains an estradiol level and performs a transvaginal ultrasound for oocyte donor; an rFSH dose will be adjusted according to the results of the estradiol level and transvaginal ultrasound. 8. Once a 14 mm lead follicle is noted on the ultrasound, the practitioner administers 20 U per day of SQ hCG along with Elagolix 200 mg PO QD, taken at 10 pm. Elagolix is administered for a minimum of 1 day and a maximum of 6 days. 9. Administration of Elagolix 200 mg PO QD is discontinued 24 hours prior to the ovulatory, GnRH agonist trigger. 10. Ovarian stimulation is continued as outlined until oocyte maturity is reached based on follicular number, follicular size, cycle day and estradiol levels, at which time an ovulatory, GnRH agonist was used to induce ovulation and egg retrieval was performed per protocol. All mature eggs are either fertilized with the intended parent's sperm or cryopreserved for future used in egg donation.
# [2] = oral administration; cited from earlier work
# [3] = target: T1, GnRH receptor; conditions: cited from earlier work
Compound,premature ovulation [1],Avg. Peak Estradiol [1],Avg. Peak LH [1],Avg. Peak Progesterone [1],Days of Stimulation [1],Avg. Matures Oocytes [1],Avg. Oocytes [1],Avg. Cum GN Dose [1],estimated half-life (t1/2) [2] [h],median time of maximum plasma concentration (Tmax) [2] [h],LH levels ([3]; 4 hours after administration of a single dose),"time for LH concentrations to rebound to about baseline levels or above ([3]; after the last dose, all dose levels) [h]","anovulatory concentrations ([3]; all participants at doses of 100 mg BID or higher, maintained throughout the 7-day study with daily dosing)",estradiol concentration at maximum suppression ([3]; all participants at doses of 200 mg BID and higher) [pg/mL],"estradiol remaining partially suppressed ([3]; at 24 hours, most groups)",safety profile ([3]; doses up to 400 mg twice per day (BID)),adverse events ([3]; healthy premenopausal women),tolerability ([3]; healthy premenopausal women),dose giving maximum inhibition of LH ([3]; more sustained suppression at higher doses) [mg BID]
"COc1cccc(-c2c(C)n(Cc3c(F)cccc3C(F)(F)F)c(=O)n(C[C@H](NCCCC(=O)[O-])c3ccccc3)c2=O)c1F.[Na+] [Elagolix, 4-((R)-2-[5-(2-fluoro-3-methoxy-phenyl)-3-(2-fluoro-6-trifluoromethyl-benzyl)-4-methyl-2,6-dioxo-3,6-dihydro-2H-pyrimidin-1-yl]-1-phenyl-ethylamino)-butyric acid sodium salt]",no instances of premature ovulation,3959,0.94,1.9,10.49,24.73,30.31,2855,4 to 6,0.5 to 1,22-35 % baseline,24 to 48,Anovulatory concentrations were observed in all participants,~11.8,42-65 % of baseline,acceptable safety profile,No clinically significant adverse events occurred,well tolerated,≥ 200
CCN=C(NCC)NCCCC[C@H](NC(=O)[C@H](CC(C)C)NC(=O)[C@@H](CCCCNC(=NCC)NCC)NC(=O)[C@H](Cc1ccc(O)cc1)NC(=O)[C@H](CO)NC(=O)[C@@H](Cc1cccnc1)NC(=O)[C@@H](Cc1ccc(Cl)cc1)NC(=O)[C@@H](Cc1ccc2ccccc2c1)NC(C)=O)C(=O)N1CCC[C@H]1C(=O)N[C@H](C)C(N)=O [Ganirelix] (Ac-[d2Nal][dPhe(4-Cl)][d3Pal]SY[d(hArg(Et2))]L[hArg(Et2)]P[dA]-NH2),no instances of premature ovulation,3764,1.3,2.3,10.06,25.42,30.55,2741,,,,,,,,,,,
